# In ChEMBL document CHEMBL5634089, “Design, synthesis and evaluation of 2-pyrimidinylindole derivatives as anti-obesity agents by regulating lipid metabolism” (Eur J Med Chem, 2023):
# pEC50: −log10 of the molar value. Calls of active or inactive are those of the source. The calls are words filed in the database; no cut-off is given here.
# Legend:
# [1] = test system: 3T3-L1; assay: Anti-adipogenic activity against mouse 3T3-L1 cells assessed as increase in Acsl1 mRNA expression at 0.2 to 0.8 uM incubated for 3 days by RT-PCR analysis; assay type: functional, cell-based; settings: dose 0.2-0.8 µM, time 3.0 day
# [2] = test system: 3T3-L1; assay: Anti-adipogenic activity against mouse 3T3-L1 cells assessed as decrease in PPAR gamma mRNA expression at 0.2 to 0.8 uM incubated for 3 days by RT-PCR analysis; assay type: functional, cell-based; settings: dose 0.2-0.8 µM, time 3.0 day
# [3] = Oral bioavailability (0 to t) in Sprague-Dawley rat at 20 mg/kg administered for 24 hrs by LC-MS/MS analysis; assay type: ADME, organism-based; settings: in vivo
# [4] = test system: Mus musculus; assay: Anti-obesity activity in high-fat and high-cholesterol diet induced C57BL/6J mouse assessed as reduction in LDL-c level at 20 mg/kg, ip administered every day for 6 weeks; assay type: functional, organism-based
# [5] = test system: Mus musculus; assay: Anti-obesity activity in high-fat and high-cholesterol diet induced C57BL/6J mouse assessed as attenuation of fibrosis in liver at 20 mg/kg, ip administered every day for 6 weeks by Sirius red staining based microscopic analysis; assay type: functional, organism-based
# [6] = test system: 3T3-L1; assay: Anti-adipogenic activity against mouse 3T3-L1 cells assessed as decrease in C/EBP alpha mRNA expression at 0.2 to 0.8 uM incubated for 3 days by RT-PCR analysis; assay type: functional, cell-based; settings: dose 0.2-0.8 µM, time 3.0 day
# [7] = test system: Adipocyte; assay: Anti-adipogenic activity against mouse […] Adipocytes assessed as lipid-lowering activity by Oil Red O staining based microplate reader analysis; assay type: functional, cell-based
# [8] = test system: Mus musculus; assay: Anti-obesity activity in high-fat and high-cholesterol diet induced C57BL/6J mouse assessed as reduction in liver damage by measuring reduction in cholinesterase level in serum at 20 mg/kg, ip administered every day for 6 weeks; assay type: functional, organism-based
# [9] = Apparent volume of distribution during terminal phase in Sprague-Dawley rat at 20 mg/kg, po administered for 24 hrs by LC-MS/MS analysis; assay type: ADME, organism-based; settings: in vivo, read-out: Vz/F
# [10] = AUC (0 to infinity) in Sprague-Dawley rat at 2 mg/kg, iv administered for 24 hrs by LC-MS/MS analysis; assay type: ADME, organism-based; settings: in vivo
# [11] = test system: Mus musculus; assay: Anti-obesity activity in high-fat and high-cholesterol diet induced C57BL/6J mouse assessed as reduction in liver damage by measuring reduction in LDH level in serum at 20 mg/kg, ip administered every day for 6 weeks; assay type: functional, organism-based
# [12] = test system: 3T3-L1; assay: Anti-adipogenic activity in mouse 3T3-L1 cells assessed as lipid-lowering activity at 1 uM measured after 9 days by Oil Red O staining based microplate reader analysis relative to control; assay type: functional; settings: time 9 day
# [13] = AUC (0 to t) in Sprague-Dawley rat at 20 mg/kg, po administered for 24 hrs by LC-MS/MS analysis; assay type: ADME, organism-based; settings: in vivo
# [14] = Oral bioavailability (0 to infinity) in Sprague-Dawley rat at 20 mg/kg administered for 24 hrs by LC-MS/MS analysis; assay type: ADME, organism-based; settings: in vivo
# [15] = test system: Mus musculus; assay: Anti-obesity activity in high-fat and high-cholesterol diet induced C57BL/6J mouse assessed as reduction in triglyceride level at 20 mg/kg, ip administered every day for 6 weeks; assay type: functional, organism-based
# [16] = Tmax in Sprague-Dawley rat at 20 mg/kg, po administered for 24 hrs by LC-MS/MS analysis; assay type: ADME, organism-based; settings: in vivo
smiles,measurement,setting,value
CC(=O)c1c(-c2nccc(NCCN3CCCC3)n2)[nH]c2ccccc12,Activity,[1],Active
same,Activity,[2],Active
same,bioavailability,[3],63%
same,Activity,[4],Active
same,Activity,[5],Active
same,Activity,[6],Active
same,pEC50,[7],6.54
same,Activity,[8],Active
same,Vd/F,[9],65.2 L/kg
same,AUC(0-inf),[10],225 ng·h/mL
same,Activity,[11],Active
same,Activity,[12],100.7%
same,AUC(0-t) at 24 h,[13],1380 ng·h/mL
same,bioavailability,[14],65.5%
same,Activity,[15],Active
same,Tmax,[16],2.8 h
